Results from patent publication US6444694B1, “Styryl benzimidazole derivatives” (Wyeth, priority 1995, dated 2002).
Structures can show the parent of a compound that is named as a salt. Where two headings read alike, the source gives them in different places.

Experiments:
[1] = system: isolated porcine aortic smooth muscle cells; assay: Porcine aortic smooth muscle cell antiproliferation (3H thymidine incorporation); format: cell-based; settings: 24-36 hours
Procedure: The ability of the compounds of the present invention to inhibit smooth muscle cell proliferation was established using isolated porcine aortic smooth muscle cells in a modification of the procedure of Castellot et al. J. Biol. Chem 257(19) 11256 (1982), as follows:
Fresh porcine aortas, scrupulously cleansed of fatty tissue, are rinsed in sterile phosphate-buffered saline with 2% antibiotic-antimycotic (100×) liquid (10,000 units of penicillin (base), 10,000 μg of streptomycin (base), and 25 μg of amphotericin B/mL utilizing penicillin G (sodium salt), streptomycin sulfate, and amphotericin B as Fungizone® in 0.85% saline, available from Gibco Laboratories, Grand Island Biological Co., Grand Island, N.Y.). The tissue is then digested in 10-15 mL of an enzyme solution containing collagenase type I, 165 U/mL; elastase type III, 15 U/mL; BSA, 2 mg/mL; and soybean trypsin inhibitor, 0.375 mg/mL, followed by incubation at 37° C. under 5% CO2 atmosphere for 10 to 15 minutes. After this treatment, the outer surface adventitia is removed by peeling with a forceps. The aorta is then longitudinally cut and laid open and the endothelial layer is removed by scraping.
The medial layer of cells is rinsed in the enzyme solution, and placed in a new 100 mm dish with 10 mL of enzyme solution. The medial layer of cells is minced using a fine pair of scissors and digested for 2-3 hours at 37° C. in 30 mL of fresh enzyme solution. After digestion, the medial tissue is homogenized using a sterile Pasteur pipette with a fire polished tip or an Eppendorf pipetter with a 200-1000 μL sterile pipette tip. The suspension is then centrifuged for 10 minutes at 8000 rpm and the pellet is suspended in 4-6 mL of fresh enzyme solution and plated onto 4-6 100 mm flasks with vented caps. The cells are then allowed to grow to confluence and split using 0.25% trypsin. The cells are evaluated for purity and overall quality using antibody to SMC actin.
The cells are assayed in early passage (generally passage 3-7) at sub-confluent conditions. Cultures are grown in 16 mm (24 well) multi-well culture dishes in media 199 supplemented with 10% fetal bovine serum and 2% antibiotic/antimycotic. At subconfluence, the cells are placed in a defined serum free, lymphocyte medium (AIM-V; Gibco) for 24-48 hours prior to initiating the experimental protocol.
The standard test procedure is initiated by addition of the test compound, ^3H thymidine and serum or a specific growth factor to the serum deprived synchronized cells. Growth factor and serum stimulations are optimized for each cell type. The test compounds are added to each well at 50 fold dilution (20 μL/well) and the plates are incubated for 24-36 hours at 37° C. in 5% CO2 atmosphere. Test compounds are dissolved in 50% ethanol and assayed at 1, 10, and 100 μM. As a control, RG 50872 (Bilder, G. A.; et al., Am. J. Cell Physiol., 1991; 260: C721) is routinely assayed under the conditions of each cell preparation at a concentration of 5 μM.
At the completion of the experiment, the plates are placed on ice, washed three times with ice cold PBS and incubated in ice cold 10% trichloroacetic acid (TCA) for 30 minutes to remove acid soluble proteins. Each solution is transferred to a scintillation vial containing 0.4N HCl (500 μL/vial to neutralize NaOH) and each well is rinsed two times with water […].
Data is quantitated by subjecting the vials to a scintillation counter, in triplicate, for both control and experimental samples. Control (100%) data is obtained from maximally stimulated cells, as the result of growth factor or serum stimulation. Experimental data is obtained from cells maximally stimulated with growth factor or serum and treated with a test compound. (The platelet-derived growth factor used in the assay was human recombinant PDGF-AB purchased from Upstate Biotechnology Inc., Lake Placid, N.Y.). Data is expressed as a percent of control from which IC50s are determined.

[2] = Cytotoxicity, commercial modification of the MTT assay; format: cell-based, porcine; design: dose or concentration left out as unconfirmed; settings: pig
Procedure: To distinguish cytotoxicity from the ability of a compound to prevent proliferation, the test compounds were examined using a commercial modification of the MTT assay. Briefly, cells were grown in 24 well plates to 70-80% confluency. The cells were serum deprived for 24-48 hours prior to initiation of the experimental protocol. To insure that the MTT assay monitored toxicity rather than proliferation, the cells were incubated with […] test compound in fresh medium without serum for 24 hours at 37° C. in a humidified CO2 incubator. Upon completion of the compound treatment, MTT indicator dye was added for 4 hours a 37° C. Cells were then solubilized and aliquots from each will were transferred to a 96-well plate for analysis. Absorbance at 570 nm wavelength with a reference wavelength of 630 nm was recorded using an ELISA plate reader. Results are reported as percent viable using no drug (100% viable) and pre-solubilization (0% viable) standards.

[3] = Sus scrofa, serum-stimulated, serum deprived synchronized cells, read-out: Porcine Smooth Muscle Cell Antiproliferation IC50 or % Inhibition at x Concentration, Serum
[4] = Sus scrofa, stimulated with human recombinant PDGF-AB, read-out: Porcine Smooth Muscle Cell Antiproliferation IC50 or % Inhibition at x Concentration, PDGF
[5] = serum-stimulated, serum deprived synchronized cells, read-out: Porcine Smooth Muscle Cell Antiproliferation IC50 or % Inhibition at x Concentration, Serum
[6] = stimulated with human recombinant PDGF-AB, read-out: Porcine Smooth Muscle Cell Antiproliferation IC50 or % Inhibition at x Concentration, PDGF

| melting point | Compound | IC50 [1, 3] | IC50 [1, 4] | viability at 24 h [2] | IC50 [1, 5] | IC50 [1, 6] |
| --- | --- | --- | --- | --- | --- | --- |
| 246 to 249 °C | COc1ccc2[nH]c(C=Cc3ccc(OC)c(OC)c3)nc2c1 (as salt: hydrochloride) (hydrate or solvate) [Example 2, 2-[2-(3,4-Dimethoxyphenyl)-vinyl]-5-methoxy-1H-benzoimidazole] | – | – | – | – | – |
| 111 to 114 °C | COC(=O)c1ccc(Cn2c(C=Cc3ccc(OC)c(OC)c3)nc3c(OC)c(C)c(C)c(OC)c32)cc1 (hydrate or solvate) [Example 8, 4-{2-[2-(3,4-Dimethoxyphenyl)-vinyl]-4,7-dimethoxy-5,6-dimethyl-benzoimidazol-1-ylmethyl}-benzoic acid methyl ester] | – | – | – | – | – |
| – | COc1ccc(/C=C/c2nc3ccccc3[nH]2)cc1OC [Example 1, (E)-2-[2-(3,4-Dimethoxyphenyl)-vinyl]-1H-benzoimidazole] | 5.91 µM | 4.1 µM | 100% | – | – |
| – | COc1ccc2[nH]c(C=Cc3ccc(OC)c(OC)c3)nc2c1 [Example 2, 2-[2-(3,4-Dimethoxyphenyl)-vinyl]-5-methoxy-1H-benzoimidazole] | 11.4 µM | 3.48 µM | 100% | – | – |
| – | COc1ccc(C=Cc2nc3cc(C(=O)c4ccccc4)ccc3[nH]2)cc1OC [Example 3, {2-[2-(3,4-Dimethoxyphenyl)-vinyl]-1H-benzoinmidazol-5-yl}-phenyl-methanone] | – | – | – | 7.6 µM | 0.324 to 0.801 µM |
| 116 to 119 °C | COc1ccc(C=Cc2nc3c(OC)c(C)c(C)c(OC)c3[nH]2)cc1OC [Example 4, 2-[2-(3,4-Dimethoxyphenyl)-vinyl]-4,7-dimethoxy-5,6-dimethyl-1H-benzoimidazole] | 1.28 µM | 1.5 µM | 100% | – | – |
| 185 to 188 °C | COC(=O)c1ccc2[nH]c(/C=C/c3ccc(OC)c(OC)c3)nc2c1 [Example 5, (E)-2-[2-(3,4-Dimethoxyphenyl)-vinyl]-1H-benzoimidazole-5-carboxylic acid methyl ester] | 1.2 µM | 6.12 µM | 100% | – | – |
| – | COc1ccc(/C=C/c2nc3cc(C(=O)O)ccc3[nH]2)cc1OC [Example 6, (E)-2-[2-(3,4-Dimethoxyphenyl)-vinyl]-1H-benzoimidazole-5-carboxylic acid] | 2.26 µM | 7.49 µM | 100% | – | – |
| 223 to 225 °C | COc1ccc(/C=C/c2nc3cc([N+](=O)[O-])ccc3[nH]2)cc1OC [Example 7, (E)-2-[2-(3,4-Dimethoxyphenyl)-vinyl]-5-nitro-1H-benzoimidazole] | 0.567 to 1.9 µM | 1.49 µM | 100% | – | – |
| – | COC(=O)c1ccc(Cn2c(C=Cc3ccc(OC)c(OC)c3)nc3c(OC)c(C)c(C)c(OC)c32)cc1 [Example 8, 4-{2-[2-(3,4-Dimethoxyphenyl)-vinyl]-4,7-dimethoxy-5,6-dimethyl-benzoimidazol-1-ylmethyl}-benzoic acid methyl ester] | 0.915 to 10.2 µM | 0.622 µM | 80% | – | – |
| – | COc1ccc(C=Cc2nc3c([nH]2)C(=O)C(C)=C(C)C3=O)cc1OC [Example 9, 2-[2-(3,4-Dimethoxyphenyl)-vinyl]-5,6-dimethyl-1-benzoimidazol-4,7-dione] | – | – | – | 14.5 µM | 0.858 µM |
| – | O=[N+]([O-])c1ccc2[nH]c(/C=C/c3ccncc3)nc2c1 [Example 10, (E)-5-Nitro2-(2-pyridin-4-yl-vinyl)-1H-benzoimidazole] | 8.36 µM | 0.62 µM | 45% | – | – |
| 230 to 233 °C | O=[N+]([O-])c1ccc2[nH]c(/C=C/c3ccoc3)nc2c1 [Example 11, (E)-2-(2-Furan-3-yl-vinyl)-5-nitro-1H-benzoimidazole] | – | – | – | – | – |
